One data set has as its system Huh-7. As to the kind of experiment: Cytotoxicity against human HuH-7 cells by MTT assay. (Tetrazolium assays rely on reduction of a dye to a coloured formazan, in cell work by metabolically active cells.)
In data set [1] the target is T1, Bile acid receptor (Homo sapiens, UniProt Q96RI1).
T1 sequence (Q96RI1 whole entry): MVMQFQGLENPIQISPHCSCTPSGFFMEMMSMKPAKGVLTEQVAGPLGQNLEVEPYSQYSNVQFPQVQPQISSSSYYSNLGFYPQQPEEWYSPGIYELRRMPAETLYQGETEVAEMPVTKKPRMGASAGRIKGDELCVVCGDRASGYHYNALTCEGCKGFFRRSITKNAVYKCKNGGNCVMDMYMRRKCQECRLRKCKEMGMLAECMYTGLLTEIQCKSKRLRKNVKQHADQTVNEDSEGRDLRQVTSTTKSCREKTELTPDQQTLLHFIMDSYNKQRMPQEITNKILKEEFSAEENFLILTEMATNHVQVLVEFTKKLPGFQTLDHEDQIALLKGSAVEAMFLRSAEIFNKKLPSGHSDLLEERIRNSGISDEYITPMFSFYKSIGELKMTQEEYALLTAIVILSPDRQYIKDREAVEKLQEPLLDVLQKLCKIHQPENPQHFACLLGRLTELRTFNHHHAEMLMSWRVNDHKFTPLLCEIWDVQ
Put plainly: Antagonist activity at recombinant GST-tagged FXR LBD (unknown origin) assessed as inhibition of GW4064-induced Fluorecein-SRC2-2 coactivator peptide recruitment by LanthaScreen TR-FRET co-regulator assay. (In general: Time-resolved FRET reads energy transfer from a long-lived donor to a nearby acceptor.)

Data set [2] concerns the target T1, Bile acid receptor. As to the kind of experiment: Antagonist activity against recombinant human FXR transfected in human HuH-7 cells co-transfected with FRE-luciferase assessed as reduction in CDCA-induced luciferase expression incubated for 24 hrs by luciferase reporter gene assay. (In general: Reporter assays use an easily measured gene product as a stand-in for the process of interest.)

Data set [3] can be described thus: Metabolic stability in mouse liver microsomes assessed as compound remaining at 1 ug/ml incubated for 30 mins by LC-MS/MS analysis. As to conditions: at 1 µg/mL.
Data set [4] in a line: Metabolic stability in rat liver microsomes assessed as compound remaining at 1 ug/ml incubated for 30 mins by LC-MS/MS analysis. The conditions noted are these: at 1 µg/mL.
A short description of data set [5]: in vivo. The conditions noted are these: Sprague-Dawley, rat, po, 30 mg/kg.
Data set [6] is described as follows: in vivo. As to conditions: Sprague-Dawley, rat, po, 30 mg/kg. The source holds these as a separate data set.
The nature of data set [7]: in vivo. As to conditions: Sprague-Dawley, rat, po, 30 mg/kg. This is another data set of the same source.
Data set [8] can be described thus: Plasma concentration in Sprague-Dawley rat at 30 mg/kg, po measured after 6 hrs by LC-MS/MS analysis.
The conditions of data set [9]: rat, in vivo, iv, 1 mg/kg, 6 h.
Data set [10] in a line: in vivo. The conditions noted are these: Sprague-Dawley, rat, po, 30 mg/kg. This is another data set of the same source.

Broadly, the IC50 is the concentration needed to halve the response being measured. Usually fraction remaining stands for what is left of the initial amount, in per cent. The term Tmax denotes the time at which the peak concentration occurs. For orientation: Cmax means the peak of the concentration-time curve. A word on the bioavailability: it is dose-corrected exposure relative to a reference, in per cent. Read a high bioavailability as much systemic uptake. What is called AUC is the area under the concentration-time curve, a measure of exposure. Read a high AUC as more exposure. For orientation: AUC(0-t) means exposure summed from dosing to a finite time, without extrapolation to infinity.

Turning to `CC(C)C(=O)N1CCC(C[C@@H](c2nc3ccccc3n2C2CC2)N2C(=O)CN(c3ccc(Oc4ccc(F)cc4)cc3)C2=O)CC1`, the IC50 in the data set with Huh-7 was more than 100000 nM; on Bile acid receptor [1] it was 140 nM; at Bile acid receptor [2] it was 1.8 nM. Further, the amount remaining at 0.5 h, 1 ug/ml in data set [3] is 29.4%.
As to `COc1ccc(Oc2ccc(N3CC(=O)N([C@@H](CC4CCN(C(=O)C(C)C)CC4)c4nc5ccc(C)cc5n4C)C3=O)cc2)cc1`, the IC50 in the data set on Huh-7 is more than 100000 nM; at Bile acid receptor [2], less than 0.001 nM. In addition, the fraction remaining at 0.5 h, 1 ug/ml in data set [3] stood at 2.4%; in [4], 12.1%. Also, the Tmax at 6 h in the data set “in vivo [5]” is 2 h. Besides, the concentration in the data set “in vivo [6]” peaked (Cmax at 6 h) at 483 ng/mL. The bioavailability at 6 h in “in vivo [7]” is 18%.
For the compound `CC(C)C(=O)N1CCC(C[C@@H](c2nc3ccc(F)cc3n2C2CC2)N2C(=O)CN(c3ccc(Oc4ccc(F)cc4)cc3)C2=O)CC1`, the half-inhibitory concentration (IC50) in the data set with Huh-7 was more than 100000 nM. In addition, the share remaining at 0.5 h, 1 ug/ml in [3] came out at 54%; in data set [4], 84.4%. The compound further had a concentration at 6 h in data set [8] of 2480 ng/mL. The exposure (AUC) in data set [9] came out at 937 ng·h/mL. This compound had an AUC(0-t) at 6 h in the data set “in vivo [10]” of 15600 ng·h/mL. Besides, the Tmax at 6 h in “in vivo [5]” is 3 h. Besides, the Cmax at 6 h in “in vivo [6]” stood at 2850 ng/mL. Further, the bioavailability at 6 h in “in vivo [7]” was 55.4%.
In turn, `Cc1ccc2nc([C@H](CC3CCN(C(=O)C(C)C)CC3)N3C(=O)CN(c4ccc(Oc5ccc(F)cc5)cc4)C3=O)n(C)c2c1` yielded an IC50 in the data set on Huh-7 of more than 100000 nM. Besides, the fraction remaining at 0.5 h, 1 ug/ml in [3] stood at 10.6%.

The values are drawn from ChEMBL document CHEMBL4680376, “Discovery of Orally Active and Nonsteroidal Farnesoid X Receptor (FXR) Antagonist with Propensity for Accumulation and Responsiveness in Ileum” (ACS Med Chem Lett, 2021).
